Data on 22 compounds can be found in patent US20240025906A1 (NEURON23, INC., priority 2022, published 2024).

pIC50, pKd: −log10 of the molar value. Like-named read-outs stand apart in the source and are kept apart here. Bounds are passed on as bounds.

The subject of test [1] is JAK1/TYK2 pSTAT5 (Tyr694/699) in THP-1 cell line. Kind of test: IFNa-stimulated JAK1/TYK2 pSTAT5 (Tyr694/699) inhibition cellular assay, AlphaLISA. It counts as cell-based. To be noted: THP-1 cells, IFNa-stimulated, AlphaLISA (Assay B), read-out: Cellular_THP1_IFNa-pSTATS_TYK2. The method in brief:
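pSTAT5 (Tyr694/699) in lysates quantified by AlphaLISA (615 nm) after 30 min IFNa stimulation (100 ng/mL stock) of THP-1 cells. The cells, 2e4 per well in HBSS, had first been exposed 1 h at 37° C. to eight 6-fold compound dilutions, 10000 down to 0.04 nM final. IC50 fitted by 4PL regression, bottom 0, Hill slope −1.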

For another test, the target named is T1, TYK2 JH2 (Homo sapiens, UniProt P29597).
T1 construct: purchased DiscoverX (KINOMEscan KdELECT service); host or cells: E. coli BL21-derived (T7 phage display) or HEK-293
T1 sequence (P29597 589-875 limits assumed): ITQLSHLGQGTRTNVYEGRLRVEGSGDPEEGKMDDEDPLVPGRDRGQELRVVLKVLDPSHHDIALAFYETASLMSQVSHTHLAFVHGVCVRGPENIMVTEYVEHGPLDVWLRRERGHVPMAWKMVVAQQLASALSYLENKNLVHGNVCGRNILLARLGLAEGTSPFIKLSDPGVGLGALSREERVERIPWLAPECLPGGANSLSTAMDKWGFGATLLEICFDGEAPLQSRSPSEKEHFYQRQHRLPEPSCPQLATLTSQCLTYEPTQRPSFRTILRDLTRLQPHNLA
Kind of test: TYK2 JH2 binding assay (KINOMEscan KdELECT competitive binding). To be noted: TYK2 JH2 domain, DiscoverX KINOMEscan KdELECT (Assay A); read-out: Biochemical TYK2_DiscoverX_JH2_BND_Kd. The method, boiled down:
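The assay measures displacement of DNA- or phage-tagged TYK2 pseudokinase domain from an affinity resin; compound binding lowers the amount captured, read by qPCR. Incubation lasts 1 h at room temperature.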

For the compound `CNc1ncc(-c2nc3ccc(N4C[C@@H](C)O[C@@H](C)C4)cn3n2)c2cc(N)ncc12` [Example 553, 4-(6-((2R,6S)-2,6-dimethylmorpholino)-[1,2,4]triazolo[1,5-a]pyridin-2-yl)-N^1-methyl-2,7-naphthyridine-1,6-diamine], the pIC50 in test [1] (Homo sapiens) is < 6.30. The pKd on TYK2 JH2 was ≥ 7.00.

As for `CNc1ncc(-c2nc3ccc(N4C[C@@H](C)O[C@@H](C)C4)cn3n2)c2cc(NC(=O)[C@@H]3C[C@@H]3F)ncc12` [Example 554, (1S,2S)—N-(5-(6-((2R,6S)-2,6-dimethylmorpholino)-[1,2,4]triazolo[1,5-a]pyridin-2-yl)-8-(methylamino)-2,7-naphthyridin-3-yl)-2-fluoracyclopropane-1-carboxamide], the pIC50 in test [1] was ≥ 6.30. The pKd at TYK2 JH2 is ≥ 7.00.

As to `CNc1ncc(-c2nc3ccc(N4C[C@@H](C)O[C@@H](C)C4)cn3n2)c2cc(NC(=O)[C@H]3C[C@H]3C)ncc12` [Example 555, (1S,2R)-N-(5-(6-((2R,6S)-2,6-dimethylmorpholino)-[1,2,4]triazolo[1,5-a]pyridin-2-yl)-8-(methylamino)-2,7-naphthyridin-3-yl)-2-methylcyclopropane-1-carboxamide], the pIC50 in test [1] (Homo sapiens) is ≥ 6.30. In addition, the pKd at TYK2 JH2 is ≥ 7.00.

In the case of `CNc1ncc(-c2nc3ccc(N4C[C@@H](C)O[C@@H](C)C4)cn3n2)c2cc(NC(=O)CC(F)(F)F)ncc12` [Example 556, N-(5-(6-((2R,6S)-2,6-dimethylmorpholino)-[1,2,4]triazolo[1,5-a]pyridin-2-yl)-8-(methylamino)-2,7-naphthyridin-3-yl)-3,3,3-trifluoropropanamide], the pIC50 in test [1] (Homo sapiens) was ≥ 6.30. Moreover, the pKd on TYK2 JH2 is ≥ 7.00.

Turning to `CNc1ncc(-c2nc3ccccn3n2)c2cc(Nc3ccccn3)ncc12` [Example 557, 4-([1,2,4]triazolo[1,5-a]pyridin-2-yl)-N^1-methyl-N^6-(pyridin-2-yl)-2,7-naphthyridine-1,6-diamine], the pIC50 in test [1] (Homo sapiens) was ≥ 6.30. In addition, the pKd at TYK2 JH2 is ≥ 7.00.

`CNc1ncc(-c2nc3ccc(N4CCC(F)(F)CC4)cn3n2)c2cc(NC(=O)[C@H]3C[C@H]3C)ncc12` [Example 558, (1S,2R)—N-(5-(6-(4,4-difluoropiperidin-1-yl)-[1,2,4]triazolo[1,5-a]pyridin-2-yl)-8-(methylamino)-2,7-naphthyridin-3-yl)-2-methylcyclopropane-1-carboxamide]: the pIC50 in test [1] (Homo sapiens) is ≥ 6.30. On TYK2 JH2, the pKd was ≥ 7.00.

For the compound `CNc1ncc(-c2nc3ccc(N4CC5CN(C)CC(C4)O5)cn3n2)c2cc(NC(=O)C3(F)CC3)ncc12` [Example 559, 1-fluoro-N-(5-(6-(7-methyl-9-oxa-3,7-diazabicyclo[3.3.1]nonan-3-yl)-[1,2,4]triazolo[1,5-a]pyridin-2-yl)-8-(methylamino)-2,7-naphthyridin-3-yl)cyclopropane-1-carboxamide], the pIC50 in test [1] (Homo sapiens) is ≥ 6.30. On TYK2 JH2, the pKd was ≥ 7.00.

Consider `CNc1ncc(-c2nc3ccc(N4CC5CN(C)CC(C4)O5)cn3n2)c2cc(NC(=O)[C@H]3C[C@H]3C)ncc12` [Example 560, (1S,2R)-2-methyl-N-(5-(6-(7-methyl-9-oxa-3,7-diazabicyclo[3.3.1]nonan-3-yl)-[1,2,4]triazolo[1,5-a]pyridin-2-yl)-8-(methylamino)-2,7-naphthyridin-3-yl)cyclopropane-1-carboxamide], for which the pIC50 in test [1] (Homo sapiens) is ≥ 6.30. Moreover, on TYK2 JH2, the pKd was ≥ 7.00.

In the case of `CNc1ncc(-c2nc3ccc(C)cn3n2)c2cc(NC(=O)C3CCC3)ncc12` [Example 561, N-(5-(6-methyl-[1,2,4]triazolo[1,5-a]pyridin-2-yl)-8-(methylamino)-2,7-naphthyridin-3-yl)cyclobutanecarboxamide], the pIC50 in test [1] (Homo sapiens) is ≥ 6.30. The pKd at TYK2 JH2 was ≥ 7.00.

As for `CNc1ncc(-c2nc3ccc(C)cn3n2)c2cc(NC(=O)[C@H]3C[C@H]3C)ncc12` [Example 562, (1S,2R)-2-methyl-N-(5-(6-methyl-[1,2,4]triazolo[1,5-a]pyridin-2-yl)-8-(methylamino)-2,7-naphthyridin-3-yl)cyclopropane-1-carboxamide], the pIC50 in test [1] (Homo sapiens) is ≥ 6.30. At TYK2 JH2, the pKd was ≥ 7.00.

Turning to `CNc1ncc(-c2nc3ccc(N4C[C@H]5C[C@@H]4CO5)cn3n2)c2cc(NC(=O)C3(F)CC3)ncc12` [Example 563, N-(5-(6-((1R,4R)-2-oxa-5-azabicyclo[2.2.1]heptan-5-yl)-[1,2,4]triazolo[1,5-a]pyridin-2-yl)-8-(methylamino)-2,7-naphthyridin-3-yl)-1-fluorocyclopropane-1-carboxamide], the pIC50 in test [1] (Homo sapiens) is ≥ 6.30. The pKd at TYK2 JH2 is ≥ 7.00.

Take `[2H]C([2H])([2H])Nc1ncc(-c2nc3ccccn3n2)c2cc(NC(=O)[C@H]3C[C@H]3F)ncc12` [Example 566, (1R,2R)—N-(5-([1,2,4]triazolo[1,5-a]pyridin-2-yl)-8-((methyl-d3)amino)-2,7-naphthyridin-3-yl)-2-fluorocyclopropane-1-carboxamide]: the pIC50 in test [1] (Homo sapiens) is ≥ 6.30. In addition, the pKd at TYK2 JH2 is ≥ 7.00.

In the case of `[2H]C([2H])([2H])Nc1ncc(-c2nc3ccccn3n2)c2cc(NC(=O)[C@@H]3C[C@@H]3F)ncc12` [Example 567, (1S,2S)—N-(5-([1,2,4]triazolo[1,5-a]pyridin-2-yl)-8-((methyl-d3)amino)-2,7-naphthyridin-3-yl)-2-fluorocyclopropane-1-carboxamide], in test [1] (Homo sapiens), the pIC50 is ≥ 6.30. The pKd at TYK2 JH2 is ≥ 7.00.

For `[2H]C([2H])([2H])Nc1ncc(-c2nc3ccc(OC)cn3n2)c2cc(NC(=O)[C@H]3C[C@H]3F)ncc12` [Example 568, (1R,2R)-2-fluoro-N-(5-(6-methoxy-[1,2,4]triazolo[1,5-a]pyridin-2-yl)-8-((methyl-d3)amino)-2,7-naphthyridin-3-yl)cyclopropane-1-carboxamide], in test [1] (Homo sapiens), the pIC50 is ≥ 6.30. The pKd on TYK2 JH2 is ≥ 7.00.

On to `[2H]C([2H])([2H])Nc1ncc(-c2nc3ccc(OC)cn3n2)c2cc(NC(=O)[C@@H]3C[C@@H]3F)ncc12` [Example 569, (1S,2S)-2-fluoro-N-(5-(6-methoxy-[1,2,4]triazolo[1,5-a]pyridin-2-yl)-8-((methyl-d3)amino)-2,7-naphthyridin-3-yl)cyclopropane-1-carboxamide], for which, in test [1] (Homo sapiens), the pIC50 is ≥ 6.30. Moreover, at TYK2 JH2, the pKd was ≥ 7.00.

Regarding `[2H]C([2H])([2H])Nc1ncc(-c2nc3ccc(OC)cn3n2)c2cc(NC(=O)[C@H]3C[C@H]3C)ncc12` [Example 570, (1S,2R)—N-(5-(6-methoxy-[1,2,4]triazolo[1,5-a]pyridin-2-yl)-8-((methyl-d3)amino)-2,7-naphthyridin-3-yl)-2-methylcyclopropane-1-carboxamide], in test [1] (Homo sapiens), the pIC50 was ≥ 6.30. Also, the pKd at TYK2 JH2 is ≥ 7.00.

For `[2H]C([2H])([2H])Nc1ncc(-c2nc3ccc(N4CCOCC4)cn3n2)c2cc(NC(=O)C3(F)CC3)ncc12` [Example 571, 1-fluoro-N-(8-((methyl-d3)amino)-5-(6-morpholino-[1,2,4]triazolo[1,5-a]pyridin-2-yl)-2,7-naphthyridin-3-yl)cyclopropane-1-carboxamide], in test [1] (Homo sapiens), the pIC50 was ≥ 6.30. The pKd at TYK2 JH2 is ≥ 7.00.

Turning to `[2H]C([2H])([2H])Nc1ncc(-c2nc3ccc(N4CCOCC4)cn3n2)c2cc(NC(=O)[C@H]3C[C@H]3C)ncc12` [Example 572, (1S,2R)-2-methyl-N-(8-((methyl-d3)amino)-5-(6-morpholino-[1,2,4]triazolo[1,5-a]pyridin-2-yl)-2,7-naphthyridin-3-yl)cyclopropane-1-carboxamide], the pIC50 in test [1] (Homo sapiens) is ≥ 6.30. On TYK2 JH2, the pKd is ≥ 7.00.

For `[2H]C([2H])([2H])Nc1ncc(-c2nc3ccc(N4CCO[C@@H](C)C4)cn3n2)c2cc(NC(=O)C3(F)CC3)ncc12` [Example 576, (S)-1-fluoro-N-(8-((methyl-d3)amino)-5-(6-(2-methylmorpholino)-[1,2,4]triazolo[1,5-a]pyridin-2-yl)-2,7-naphthyridin-3-yl)cyclopropane-1-carboxamide], in test [1] (Homo sapiens), the pIC50 is ≥ 6.30. Further, on TYK2 JH2, the pKd is ≥ 7.00.

In the case of `[2H]C([2H])([2H])Nc1ncc(-c2nc3ccc(C)cn3n2)c2cc(NC(=O)C3(F)CC3)ncc12` [Example 577, 1-fluoro-N-(8-((methyl-d3)amino)-5-(6-methyl-[1,2,4]triazolo[1,5-a]pyridin-2-yl)-2,7-naphthyridin-3-yl)cyclopropane-1-carboxamide], in test [1] (Homo sapiens), the pIC50 was < 6.30. The pKd at TYK2 JH2 was ≥ 7.00.

With `[2H]C([2H])([2H])Nc1ncc(-c2nc3ccc(C)cn3n2)c2cc(NC(=O)[C@@H]3C[C@@H]3F)ncc12` [Example 578, (1S,2S)-2-fluoro-N-(8-((methyl-d3)amino)-5-(6-methyl-[1,2,4]triazolo[1,5-a]pyridin-2-yl)-2,7-naphthyridin-3-yl)cyclopropane-1-carboxamide], the pIC50 in test [1] (Homo sapiens) is ≥ 6.30. In addition, the pKd on TYK2 JH2 is ≥ 7.00.

Regarding `CCNc1ncc(-c2nc3ccc(N4CCOCC4)cn3n2)c2cc(NC(=O)[C@H]3C[C@H]3C)ncc12` [Example 579, (1S,2R)—N-(8-(ethylamino)-5-(6-morpholino-[1,2,4]triazolo[1,5-a]pyridin-2-yl)-2,7-naphthyridin-3-yl)-2-methylcyclopropane-1-carboxamide], the pIC50 in test [1] (Homo sapiens) is ≥ 6.30. For the same compound, the pKd on TYK2 JH2 is ≥ 7.00.
